# Earlier results as cited in patent US20260297044A1, “INHIBITORS OF SPINSTER HOMOLOG 2 (SPNS2) FOR USE IN THERAPY” (University of Virginia Patent Foundation, priority 2023, published 2026).
# Tested on: Spns2
# Conditions: two models of kidney fibrosis, mice
structure (smiles),measurement,value
CCCCCCCCCCc1ccc(-c2noc(CCCN)n2)cc1 [SLF1081851],fibrosis,significantly less fibrosis
same,function of the injured kidney,improved function of the injured kidney
